Columns and labels:
CL1-5 lung cancer cells = assay: Growth inhibition of CL1-5 lung cancer cells (cell viability by absorbance); conditions: Homo sapiens, CL1-5, read-out: IC50 rate of docetaxel for the CL1-5 cells
Description: The CL1-5 cells were cultured in RPMI 1640 medium containing 100 U/ml penicillin, 100 μg/ml streptomycin, and 10% fetal bovine serum at a temperature of 37° C. and with carbon dioxide at a concentration of 5%. The cultured cells were divided into 8 treatment groups. 4 groups were treated only with docetaxel at different concentrations: 3.125, 6.25, 12.5, and 25.0 nmol of docetaxel per liter of the medium in 100 μl of 10% DMSO solution.

[1] = test system: CL1-5 human lung cancer cells engrafted in BALB/c nude mice; assay: Tumor growth in CL1-5 cell-engrafted BALB/c nude mice; conditions: CL1-5 engrafted nude mice
Description: The study was carried out as follows: inoculating BALB/c mice with of the CL1-5 human lung cancer cells; dividing the mice into 4 groups 7 days after inoculation with 8 mice in each group and treating them once every two days for 14 days respectively with (i) 0.4 ml of 10% DMSO, (ii) 0.4 ml of 10% DMSO containing 25 μmol of docetaxel, (iii) 0.4 ml of 10% DMSO containing 15.5 μmol of 5-demethylnobiletin, and (iv) 0.4 ml of 10% DMSO containing 25 μmol of docetaxel and 15.5 μmol of 5-demethylnobiletin; growing mice without any treatment for another 14 days; measuring tumor sizes after animal sacrificing.
The experimental BALB/c nude mice were divided into 4 groups, with 8 in each group. Each mouse was inoculated with 0.1 ml of the CL1-5 human lung cancer cells at a density of 10^6 cells/ml. 7 days after of the inoculation, the 4 groups of mice were infused respectively with (i) 27 μl of 10% DMSO; (ii) 25 μmol of docetaxel in a 10% DMSO solution (iii) 15.5 μmol of 5-demethylnobiletin in a 10% DMSO solution; and (iv) 25 μmol of docetaxel and 15.5 μmol of 5-demethylnobiletin in a 10% DMSO solution at a frequency of once every 2 days for 14 days. […]
[1−(fa)2], (fa)1 and (fa)2 are inhibition rates of drug1 and drug2, respectively, and (fa)1,2 is the calculated inhibition rate of combining drug1 and drug2, which is also a theoretical additive effect. […]

[2] = assay type: in vivo, mouse
Description: BALB/c nude mice were divided into two groups, with 8 mice in each group. […] Then, liver, spleen, and kidney weights of the mice in each group were measured and blood was collected. Following at RT for 1 h, the blood was centrifuged at 3000 rpm for 10 min at 4° C. to collect serum before stored at −80° C. Clinical chemistry measurements, e.g., levels of AST, ALT, triglyceride (TG), and total cholesterol (TC), were measured by an automatic biochemical analyzer.

[3] = 15.5 μmol once every 2 days for 14 days, sacrificed after another 14 days
[4] = serum, 15.5 μmol once every 2 days for 14 days

Row | Structure (SMILES) | IC50 (CL1-5 lung cancer cells) [nM] | experimental inhibition rate (fa) of tumor growth [1] [%] | Kidney weight [2, 3] [g] | Liver weight [2, 3] [g] | Spleen weight [2, 3] [g] | difference between control group and treatment group in organ weights and clinical chemistry ([2]; Table 1 parameters) | GOT [2, 4] [Unit/L] | GPT [2, 4] [Unit/L] | TC [2, 4] [mg/dL] | TG [2, 4] [mg/dL]
1 | CC(=O)O[C@@]12CO[C@@H]1C[C@H](O)[C@@]1(C)C(=O)[C@H](O)C3=C(C)[C@@H](OC(=O)[C@H](O)[C@@H](NC(=O)OC(C)(C)C)c4ccccc4)C[C@@](O)([C@@H](OC(=O)c4ccccc4)[C@H]21)C3(C)C [docetaxel, 1,7β,10β-trihydroxy-9-oxo-5β,20-epoxytax-11-ene-2α,4,13α-triyl 4-acetate 2-benzoate 13-{(2R,3S)-3-[(tert-butoxycarbonyl)amino]-2-hydroxy-3-phenylpropanoate}, reference compound] | 28.4 | 47.6 |  |  |  |  |  |  |  | 
2 | COc1ccc(-c2cc(=O)c3c(O)c(OC)c(OC)c(OC)c3o2)cc1OC [5-Hydroxy-6,7,8,3′,4′-pentamethoxyflavone] |  | 38 | 0.90 ± 0.06 | 3.93 ± 0.28 | 0.21 ± 0.04 | no significant difference | 91.2 ± 9.8 | 22.8 ± 5.2 | 77.1 ± 4.9 | 109.5 ± 36.9

Reference: patent US9763910B1, “Combination therapy for treating cancer” (Huanggang Normal University, priority 2016, dated 2017)
